Measurements taken from PubChem BioAssay (NCI).
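Values below derive from 48-hour exposures of cells grown in 96-well plates, with endpoints linearly interpolated between the two concentrations bracketing the appropriate inhibition level. The concentration for 50% growth inhibition is given as GI50. TGI marks complete inhibition of growth.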

Assays:
Assay in all cases: growth of human tumour cells (NCI), 48 h
[1] = system: SK-OV-3 ovarian
[2] = system: LOX IMVI melanoma
[3] = system: SK-MEL-2 melanoma
[4] = system: RPMI-8226 leukemia
[5] = system: NCI-H226 lung
[6] = system: BT-549 breast
[7] = system: KM12 colon
[8] = system: HL-60(TB) leukemia
[9] = system: UACC-257 melanoma
[10] = system: U251 CNS
[11] = system: A498 renal
[12] = system: ACHN renal
[13] = system: MOLT-4 leukemia
[14] = system: SNB-19 CNS
[15] = system: HT29 colon
[16] = system: OVCAR-5 ovarian
[17] = system: HS 578T breast
[18] = system: NCI/ADR-RES ovarian
[19] = system: HOP-92 NSCLC
[20] = system: SW-620 colon
[21] = system: NCI-H23 lung
[22] = system: SF-539 CNS
[23] = system: T-47D breast
[24] = system: K-562 leukemia
[25] = system: HCT-15 colon
[26] = system: HCC-2998 colon
[27] = system: MDA-MB-231 breast
[28] = system: EKVX NSCLC
[29] = system: RXF 393 renal
[30] = system: MCF7 breast
[31] = system: SK-MEL-5 melanoma
[32] = system: A549 NSCLC
[33] = system: OVCAR-3 ovarian
[34] = system: DU-145 prostate
[35] = system: OVCAR-8 ovarian
[36] = system: MALME-3M melanoma
[37] = system: SR leukemia
[38] = system: IGROV1 ovarian
[39] = system: CAKI-1 renal
[40] = system: TK-10 renal
[41] = system: SN12C renal
[42] = system: HOP-62 NSCLC
[43] = system: MDA-MB-435
[44] = system: OVCAR-4 ovarian
[45] = system: NCI-H460 lung
[46] = system: M14 melanoma
[47] = system: SNB-75 CNS
[48] = system: COLO 205 colon
[49] = system: PC-3 prostate
[50] = system: NCI-H522 lung
[51] = system: HCT-116 colon
[52] = system: 786-0 renal
[53] = system: UACC-62 melanoma
[54] = system: SF-295 CNS
[55] = system: SK-MEL-28 melanoma
[56] = system: CCRF-CEM leukemia
[57] = system: SF-268 CNS
[58] = system: UO-31 renal

`COC(=O)C1(C2CC/C(C)=C/CC/C(C)=C/CC[C@@]3(C)O[C@@H]3C2)CC1` (stereo not given in full) was tested, and the GI50 [1] was > 100 µM, the TGI [1] was > 100 µM and the GI50 [2] was 23.6 µM. For the same compound, the TGI [2] was > 60.5 µM, the GI50 [3] was > 100 µM and the TGI [3] was > 100 µM. The GI50 [4] was 16.9 µM, the TGI [4] was 48.4 µM and the GI50 [5] was > 72.2 µM. For the same compound, the TGI [5] was > 100 µM, the GI50 [6] was > 100 µM and the TGI [6] was > 100 µM. It also gave a GI50 [7] of 18.9 µM, a TGI [7] of 43.5 µM and a GI50 [8] of 25.2 µM. The TGI [8] was > 83.5 µM, the GI50 [9] was > 83.7 µM and the TGI [9] was > 100 µM. The GI50 [10] was 39.1 µM, the TGI [10] was > 100 µM and the GI50 [11] was > 100 µM. The TGI [11] was > 100 µM, the GI50 [12] was > 41.3 µM and the TGI [12] was > 62.2 µM. For the same compound, the GI50 [13] was 29.3 µM, the TGI [13] was > 100 µM and the GI50 [14] was > 100 µM. For the same compound, the TGI [14] was > 100 µM, the GI50 [15] was 68.1 µM and the TGI [15] was > 100 µM. For the same compound, the GI50 [16] was > 100 µM, the TGI [16] was > 100 µM and the GI50 [17] was > 91.2 µM. The TGI [17] was > 100 µM, the GI50 [18] was > 55 µM and the TGI [18] was > 100 µM. For the same compound, the GI50 [19] was 27.3 µM, the TGI [19] was > 100 µM and the GI50 [20] was 40 µM. The TGI [20] was > 100 µM, the GI50 [21] was 46.1 µM and the TGI [21] was > 100 µM. For the same compound, the GI50 [22] was 35.2 µM, the TGI [22] was > 69.2 µM and the GI50 [23] was > 93 µM. The TGI [23] was > 100 µM, the GI50 [24] was 29.1 µM and the TGI [24] was 99.6 µM. The GI50 [25] was > 66.7 µM, the TGI [25] was > 100 µM and the TGI [26] was > 20.8 µM. The GI50 [27] was > 48.6 µM, the TGI [27] was > 74.7 µM and the GI50 [28] was > 100 µM. For the same compound, the TGI [28] was > 100 µM, the GI50 [29] was > 38.2 µM and the TGI [29] was > 100 µM. For the same compound, the GI50 [30] was 51.1 µM, the TGI [30] was > 100 µM and the GI50 [31] was 56.1 µM. For the same compound, the TGI [31] was > 100 µM, the GI50 [32] was 29 µM and the TGI [32] was > 80.3 µM. For the same compound, the GI50 [33] was 62.9 µM, the TGI [33] was > 100 µM and the GI50 [34] was 33.6 µM. The TGI [34] was > 100 µM, the GI50 [35] was > 44.3 µM and the TGI [35] was > 65.1 µM. For the same compound, the GI50 [36] was > 83.8 µM, the TGI [36] was > 100 µM and the GI50 [37] was 12.4 µM. For the same compound, the TGI [37] was > 51.9 µM, the GI50 [38] was 30.3 µM and the TGI [38] was > 72 µM. The GI50 [39] was 32.1 µM, the TGI [39] was > 85 µM and the GI50 [40] was > 59.6 µM. For the same compound, the TGI [40] was > 100 µM, the GI50 [41] was > 100 µM and the TGI [41] was > 100 µM. For the same compound, the GI50 [42] was 25.8 µM, the TGI [42] was 65.8 µM and the GI50 [43] was 32.1 µM. For the same compound, the TGI [43] was 98.3 µM, the GI50 [44] was > 100 µM and the TGI [44] was > 100 µM. The GI50 [45] was 35.5 µM, the TGI [45] was > 100 µM and the GI50 [46] was 37.5 µM. The TGI [46] was > 72.2 µM, the GI50 [47] was > 100 µM and the TGI [47] was > 100 µM. The GI50 [48] was > 56.5 µM, the TGI [48] was > 100 µM and the GI50 [49] was 36.5 µM. For the same compound, the TGI [49] was > 100 µM, the GI50 [50] was 50.4 µM and the TGI [50] was > 100 µM. The GI50 [51] was 33 µM, the TGI [51] was > 100 µM and the GI50 [52] was 35.5 µM. The TGI [52] was > 70 µM, the GI50 [53] was > 100 µM and the TGI [53] was > 100 µM. The GI50 [54] was > 60.4 µM, the TGI [54] was > 100 µM and the GI50 [55] was > 100 µM. The TGI [55] was > 100 µM, the GI50 [56] was 25.7 µM and the TGI [56] was 65.3 µM. The GI50 [57] was > 100 µM, the TGI [57] was > 100 µM and the GI50 [58] was 26.6 µM. The TGI [58] was > 56.3 µM.
